Earlier results, collected in US20100249042A1, “COMPOSITIONS AND METHODS FOR TREATMENT OF EYELASHES AND EYEBROWS” (ProCyte Corporation, priority 2009, published 2010).

Columns and labels:
human hair follicles = settings: ex vivo; Pyo et al. 2007
[1] = system: Dermal papilla cells (DPCs); settings: in vitro; Pyo et al. 2007

Substance: L-alanyl-L-histidyl-L-lysine:copper(II) [AHK-Cu]
- elongation of human hair follicles (human hair follicles): stimulated
- proliferation of DPCs [1]: stimulated
